{"source": "patent US20220267321A1", "about": "“AZAINDOLE PYRAZOLE COMPOUNDS AS CDK9 INHIBITORS” (MEDSHINE DISCOVERY INC., priority 2019, published 2022)", "key": {"CDK1/CyclinB1": {"molecular_target": "T1, CDK1/CyclinB1 (Homo sapiens, UniProt P06493)", "T1 construct": "purchased Promega", "T1 sequence (P06493 whole entry)": "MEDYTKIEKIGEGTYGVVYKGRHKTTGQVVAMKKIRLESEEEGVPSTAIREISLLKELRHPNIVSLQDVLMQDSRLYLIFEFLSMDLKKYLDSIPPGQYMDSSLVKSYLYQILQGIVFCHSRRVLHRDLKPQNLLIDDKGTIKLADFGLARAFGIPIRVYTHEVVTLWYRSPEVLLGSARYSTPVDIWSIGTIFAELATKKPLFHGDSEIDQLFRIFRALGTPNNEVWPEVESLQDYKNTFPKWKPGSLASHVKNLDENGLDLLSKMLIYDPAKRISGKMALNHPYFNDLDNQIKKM", "T1 sequence (P14635 whole entry partner)": "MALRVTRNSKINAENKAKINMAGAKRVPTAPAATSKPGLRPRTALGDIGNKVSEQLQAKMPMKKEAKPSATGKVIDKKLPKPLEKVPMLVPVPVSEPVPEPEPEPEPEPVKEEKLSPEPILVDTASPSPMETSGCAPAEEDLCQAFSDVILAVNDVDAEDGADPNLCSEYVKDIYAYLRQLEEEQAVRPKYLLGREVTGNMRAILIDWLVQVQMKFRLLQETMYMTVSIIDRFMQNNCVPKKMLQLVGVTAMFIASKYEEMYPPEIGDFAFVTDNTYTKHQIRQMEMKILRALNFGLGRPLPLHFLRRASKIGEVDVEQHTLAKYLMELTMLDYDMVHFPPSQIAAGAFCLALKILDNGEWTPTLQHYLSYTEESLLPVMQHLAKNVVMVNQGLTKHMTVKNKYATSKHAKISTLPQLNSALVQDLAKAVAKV", "assay": "In vitro CDK1/CyclinB1 enzyme activity test (ADP-Glo)", "type": "biochemical", "conditions": "25 μM ATP, 25° C., 120 minutes", "experimental": "CDK1/CyclinB1 kinase detection kit was purchased from Promega. Nivo multi-label analyzer (PerkinElmer).\n(§1) Using the kinase buffer in the kit to dilute the enzyme, substrate, adenosine triphosphate and inhibitor.\nThe compound to be tested was diluted 5-fold to the 8th concentration with a discharge gun, that is, diluted from 50 μM to 0.65 nM, with a DMSO concentration of 5%, and replicated. Add 1 μL of each inhibitor concentration gradient, 2 μL CDK1/CyclinB1 enzyme (12.5 ng), 2 μL mixture of substrate and ATP (25 μM adenosine triphosphate, 0.2 μg/μL substrate) into the microplate, and the final concentration gradient of the compound is 10 μM dilute to 0.13 nM. The reaction system was placed at 25° C. for 120 minutes. After the reaction, add 5 μL of ADP-Glo reagent to each well, and continue the reaction at 25° C. for 40 minutes. After the reaction, add 10 μL of kinase detection reagent to each well. After reacting at 25° C. for 30 minutes, use a multi-label analyzer to read chemiluminescence. The integration time is 0.5 seconds.\nTable 1 provides the CDK1/CyclinB1 enzymatic inhibitory activity of the compounds of the present invention."}, "MV-4-11 cells": {"tested_on": "MV-4-11 cells", "assay": "In vitro cell activity test, MV-4-11 proliferation (CellTiter-Glo)", "type": "cell-based", "conditions": "Homo sapiens, MV4-11, 72 h, 3 days incubation", "experimental": "IMDM medium, fetal bovine serum, penicillin/streptomycin antibiotics were purchased from Promega (Madison, Wis.). The MV-4-11 cell line was purchased from the Cell Bank of the Chinese Academy of Sciences. Nivo multi-label analyzer (PerkinElmer).\nPlant MV-4-11 cells in a white 96-well plate, 80 μL of cell suspension per well, which contains 6000 MV-4-11 cells. The cell plate was cultured overnight in a carbon dioxide incubator.\nThe compound to be tested was diluted 5-fold to the 8th concentration with a discharge gun, that is, diluted from 2 mM to 26 nM, and replicated. Add 78 μL of culture medium to the middle plate, and then transfer 2 μL of each well of the gradient dilution compound to the middle plate according to the corresponding position, and transfer 20 μL of each well to the cell plate after mixing. The final concentration of the compound is 10 μM to 0.13 nM. The cell plate was placed in a carbon dioxide incubator for 3 days.\nAdd 25 μL of Promega CellTiter-Glo reagent per well to the cell plate and incubate at room temperature for 10 minutes to stabilize the luminescence signal. Use PerkinElmer Nivo multi-label analyzer to read."}, "[1]": {"tested_on": "MV4-1 acute myeloid leukemia xenograft (CDX)", "assay": "In vivo drug efficacy study (2), MV4-11 CDX model", "conditions": "10 mg/kg injected weekly; for Tumor Volume Day 0: Day 0 (start of administration)", "experimental": "In vivo drug efficacy experiments were performed on human-derived tumor cell line-based xenograft (CDX) BALB/c nude mice derived from patients with MV4-1 acute myeloid leukemia subcutaneously implanted.\n(§2) Female 6- to 8-week old BALB/c nude mice which weighed about 18-22 g were kept in separate ventilated cages (3 mice per cage) in a special pathogen-free environment. All the cages, matts and water were disinfected before use. All the animals had free access to standard certified commercial laboratory diet. A total of 36 mice were purchased from Shanghai Lingchang biological science and technology Co., LTD. for study. Each mouse was subcutaneously implanted with tumor cells in the right next abdomen (10×10^6 in 0.2 mL of phosphate buffer) for tumor growth. The administration started when the average tumor volume reached approximately 121 cubic millimeters. The test compound was injected weekly at a dose of 10 mg/kg. The tumor volumes were measured with a two-dimensional caliper twice a week, and the volumes were expressed in cubic millimeters and calculated by the formula: V=0.5a×b^2, where a and b were the major diameter and the minor diameter of the tumor, respectively. Antitumor efficacy was determined by dividing an average increase of the tumor volumes of the animals treated with the compounds by an average increase of the tumor volumes of the untreated animals."}, "CDK2/CyclinE1": {"molecular_target": "T2, CDK2/CyclinE1 (Homo sapiens, UniProt P24941)", "T2 construct": "purchased Promega", "assay": "In vitro CDK2/CyclinE1 enzyme activity test (ADP-Glo)", "type": "biochemical", "conditions": "150 μM ATP, 25° C., 60 minutes", "experimental": "CDK2/CyclinE1 kinase detection kit was purchased from Promega. Nivo multi-label analyzer (PerkinElmer).\nas §1\nThe compound to be tested was diluted 5-fold to the 8th concentration with a discharge gun, that is, diluted from 50 μM to 0.65 nM, with a DMSO concentration of 5%, and replicated. Add 1 μL of each inhibitor concentration gradient, 2 μL CDK2/CyclinE1 enzyme (2 ng), 2 μL mixture of substrate and ATP (150 μM adenosine triphosphate, 0.1 μg/μL substrate) to the microplate, and the final concentration gradient of the compound is 10 μM dilution to 0.13 nM. The reaction system was placed at 25° C. for 60 minutes. After the reaction, add 5 μL of ADP-Glo reagent to each well, and continue the reaction at 25° C. for 40 minutes. After the reaction, add 10 μL of kinase detection reagent to each well. After reacting at 25° C. for 30 minutes, use a multi-label analyzer to read chemiluminescence. The integration time is 0.5 seconds.\nTable 1 provides the CDK2/CyclinE1 enzymatic inhibitory activity of the compounds of the present invention."}, "CDK9/CyclinT1": {"molecular_target": "T3, CDK9/CyclinT1 (Homo sapiens, UniProt P50750)", "T3 construct": "purchased Carna", "T3 sequence (P50750 whole entry)": "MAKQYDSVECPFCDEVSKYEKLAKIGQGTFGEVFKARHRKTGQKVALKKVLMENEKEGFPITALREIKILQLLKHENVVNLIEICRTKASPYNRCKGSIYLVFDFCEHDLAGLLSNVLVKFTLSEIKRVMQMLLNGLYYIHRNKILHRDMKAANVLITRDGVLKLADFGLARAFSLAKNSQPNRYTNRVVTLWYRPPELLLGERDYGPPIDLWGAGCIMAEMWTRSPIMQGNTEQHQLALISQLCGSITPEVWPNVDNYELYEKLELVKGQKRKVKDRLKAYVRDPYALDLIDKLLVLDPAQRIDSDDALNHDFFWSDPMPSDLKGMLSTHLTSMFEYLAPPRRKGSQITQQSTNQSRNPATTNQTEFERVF", "T3 sequence (O60563 whole entry partner)": "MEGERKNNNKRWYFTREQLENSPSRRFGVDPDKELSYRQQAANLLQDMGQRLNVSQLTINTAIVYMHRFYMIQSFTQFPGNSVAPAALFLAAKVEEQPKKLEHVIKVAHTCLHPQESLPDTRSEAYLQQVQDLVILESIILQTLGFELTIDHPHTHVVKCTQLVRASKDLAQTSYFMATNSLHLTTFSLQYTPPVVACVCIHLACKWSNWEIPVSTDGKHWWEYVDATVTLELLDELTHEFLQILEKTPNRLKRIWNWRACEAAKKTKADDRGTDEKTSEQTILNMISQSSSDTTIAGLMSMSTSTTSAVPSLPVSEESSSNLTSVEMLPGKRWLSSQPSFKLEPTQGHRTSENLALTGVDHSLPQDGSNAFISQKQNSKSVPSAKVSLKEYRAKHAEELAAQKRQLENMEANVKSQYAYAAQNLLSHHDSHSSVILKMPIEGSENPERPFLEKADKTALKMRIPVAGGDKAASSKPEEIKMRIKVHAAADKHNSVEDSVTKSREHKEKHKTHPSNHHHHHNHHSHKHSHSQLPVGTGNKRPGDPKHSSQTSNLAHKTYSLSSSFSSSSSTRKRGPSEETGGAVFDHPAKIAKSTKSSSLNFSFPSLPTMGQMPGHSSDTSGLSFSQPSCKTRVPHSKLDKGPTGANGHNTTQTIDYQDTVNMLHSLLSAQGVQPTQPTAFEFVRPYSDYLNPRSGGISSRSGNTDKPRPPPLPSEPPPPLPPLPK", "assay": "In vitro CDK9/CyclinT1 enzyme activity test (ADP-Glo)", "type": "biochemical", "conditions": "100 μM ATP, 25° C., 120 minutes", "experimental": "CDK9/CyclinT1 kinase was purchased from Carna, ADP-Glo detection kit was purchased from Promega, and PKDTide substrate and kinase reaction buffer were purchased from Signalchem. Nivo multi-label analyzer (PerkinElmer).\nThe kinase buffer in the kit was used to dilute the enzyme, substrate, adenosine triphosphate and inhibitors.\nThe compound to be tested was diluted by 5 times for 8 concentrations with a discharge gun, ie., dilution from 50 μM to 0.65 nM, with a DMSO concentration of 5%, and replicated. 1 μL of each concentration gradient of the inhibitor, 2 μL CDK9/CyclinT1 enzyme (4 ng), 2 μL of a mixture of substrate and ATP (100 μM adenosine triphosphate, 0.2 μg/μL substrate) was added to the microplate, and the final concentration gradient of the compound was 10 μM dilution to 0.13 nM. The reaction system was placed at 25° C. for 120 minutes. After the reaction, 5 μL of ADP-Glo reagent was added to each well, and the reaction was allowed to continue at 25° C. for 40 minutes. After the reaction, 10 μL of kinase detection reagent was added to each well. After reacting at 25° C. for 30 minutes, a multi-label analyzer was used to read chemiluminescence. The integration time was 0.5 seconds.\nTable 1 provides the enzymatic inhibitory activity of the compounds of the present invention on CDK9/CyclinT1."}, "[2]": {"tested_on": "MV4-11 acute myeloid leukemia xenograft (CDX)", "assay": "In vivo drug efficacy study (1), MV4-11 CDX model", "conditions": "15 mg/kg injected weekly; for Tumor Volume Day 0: Day 0 (start of administration)", "experimental": "In vivo drug efficacy experiments were performed on human-derived tumor cell line-based xenograft (CDX) BALB/c nude mice derived from patients with MV4-11 acute myeloid leukemia subcutaneously implanted.\nas §2, with “of 30” for “of 36”, “approximately 110” for “approximately 121”, “of 15” for “of 10”"}, "[3]": {"conditions": "background; cited from earlier work"}, "[4]": {"conditions": "clinical research, background; cited from earlier work"}}, "note": "Counter-ions that a name gives are not always drawn."}
{"smiles": "Cn1cc(-c2c(Cl)cnc3[nH]c(C4CCNCC4)cc23)cn1", "note": "[Compound 15 (hydrochloride)]", "values": [{"measurement": "IC50", "setting": "CDK1/CyclinB1", "result": 0.824, "unit": "µM"}, {"measurement": "IC50", "setting": "MV-4-11 cells", "result": 0.0345, "unit": "µM"}, {"measurement": "Animals' Drug Tolerance", "setting": "[1]", "result": "Well"}, {"measurement": "Tumor Volume Day 0", "setting": "[1]", "result": 121, "unit": "mm^3"}, {"measurement": "Tumor Volume Day 7", "setting": "[1]", "result": 87, "unit": "mm^3"}, {"measurement": "Tumor Volume Day 17", "setting": "[1]", "result": 74, "unit": "mm^3"}, {"measurement": "Tumor Volume Day 28", "setting": "[1]", "result": 332, "unit": "mm^3"}, {"measurement": "IC50", "setting": "CDK2/CyclinE1", "result": 0.685, "unit": "µM"}, {"measurement": "IC50", "setting": "CDK9/CyclinT1", "result": 0.0043, "unit": "µM"}]}
{"smiles": "Clc1cnc2[nH]c(C3CCNCC3)cc2c1-c1cnn(CC2CC2)c1", "note": "[Compound 1 (hydrochloride)]", "values": [{"measurement": "IC50", "setting": "CDK1/CyclinB1", "result": 0.0887, "unit": "µM"}, {"measurement": "IC50", "setting": "MV-4-11 cells", "result": 0.0147, "unit": "µM"}, {"measurement": "Animals' Drug Tolerance", "setting": "[1]", "result": "Well"}, {"measurement": "Tumor Volume Day 0", "setting": "[1]", "result": 121, "unit": "mm^3"}, {"measurement": "Tumor Volume Day 7", "setting": "[1]", "result": 121, "unit": "mm^3"}, {"measurement": "Tumor Volume Day 17", "setting": "[1]", "result": 151, "unit": "mm^3"}, {"measurement": "Tumor Volume Day 28", "setting": "[1]", "result": 419, "unit": "mm^3"}, {"measurement": "IC50", "setting": "CDK2/CyclinE1", "result": 0.112, "unit": "µM"}, {"measurement": "IC50", "setting": "CDK9/CyclinT1", "result": 0.0077, "unit": "µM"}, {"measurement": "Animals' Drug Tolerance", "setting": "[2]", "result": "Well"}, {"measurement": "Tumor Volume Day 0", "setting": "[2]", "result": 110, "unit": "mm^3"}, {"measurement": "Tumor Volume Day 7", "setting": "[2]", "result": 109, "unit": "mm^3"}, {"measurement": "Tumor Volume Day 17", "setting": "[2]", "result": 42, "unit": "mm^3"}, {"measurement": "Tumor Volume Day 28", "setting": "[2]", "result": 107, "unit": "mm^3"}]}
{"smiles": "CC(=O)N[C@@H]1CCC[C@H](C(=O)Nc2cc(-c3cnn4c3CC(C)(C)C4)c(Cl)cn2)C1", "note": "[AZD4573]", "values": [{"measurement": "IC50", "setting": "CDK1/CyclinB1", "result": 0.002, "unit": "µM"}, {"measurement": "IC50", "setting": "CDK2/CyclinE1", "result": 0.001, "unit": "µM"}, {"measurement": "metabolism (in words)", "setting": "[3]", "result": "not good"}, {"measurement": "Animals' Drug Tolerance", "setting": "[2]", "result": "Well"}, {"measurement": "Tumor Volume Day 0", "setting": "[2]", "result": 110, "unit": "mm^3"}, {"measurement": "Tumor Volume Day 7", "setting": "[2]", "result": 173, "unit": "mm^3"}, {"measurement": "Tumor Volume Day 17", "setting": "[2]", "result": 262, "unit": "mm^3"}, {"measurement": "Tumor Volume Day 28", "setting": "[2]", "result": 975, "unit": "mm^3"}]}
{"smiles": "COc1cc(F)ccc1-c1cc(Nc2cc(CS(C)(=N)=O)ccn2)ncc1F", "note": "(stereo not shown) [BAY1251152]", "values": [{"measurement": "IC50", "setting": "CDK1/CyclinB1", "result": 0.3, "unit": "µM"}, {"measurement": "IC50", "setting": "MV-4-11 cells", "result": 0.0282, "unit": "µM"}, {"measurement": "IC50", "setting": "CDK2/CyclinE1", "result": 0.193, "unit": "µM"}, {"measurement": "clinically most important grade 3/4 and dose-limiting adverse side effect", "setting": "[4]", "result": "neutropenia"}, {"measurement": "Animals' Drug Tolerance", "setting": "[2]", "result": "5/6 mouse"}, {"measurement": "Tumor Volume Day 0", "setting": "[2]", "result": 110, "unit": "mm^3"}, {"measurement": "Tumor Volume Day 7", "setting": "[2]", "result": 107, "unit": "mm^3"}, {"measurement": "Tumor Volume Day 17", "setting": "[2]", "result": 83, "unit": "mm^3"}, {"measurement": "Tumor Volume Day 28", "setting": "[2]", "result": 426, "unit": "mm^3"}]}
